Assay results published in patent publication US9924714B2, “Impregnatable matrix of plant, animal or synthetic origin or mixtures of same, containing a uniformly distributed antimicrobial compound, method for impregnating said matrix with a compound, and use thereof in the production of antimicrobial elements” (COMPAÑIA MINERA SAN GERONIMO, priority 2013, dated 2018).
“And” between values parts separate entries of the source, which are not always exact repeats. Equal values may be shown once.

Assays:
Type in all cases: cell-based
[1] = system: Escherichia coli ATCC25922; experiment: Disc growth inhibition halo test (Example 2); settings: commercial disc 30 μg Km
[2] = system: Staphylococcus aureus ATCC25923; experiment: Inhibition halos of fabrics after washing (Example 7); settings: commercial disc 30 μg Km; in mm
Method: (§1) This example established qualitatively the antibacterial activity of matrixes in thin fabric (Fabric 1) and thick fabric (Fabric 2) embedded with the product, following the procedure described herein, and after subjected to washing. In order to do this, there were taken pieces of 2×2 cm from both fabrics, cut and washed for 2 hours with stirring using commercial laundry detergent. Subsequently, the washed fabric pieces which have the new product are dried in an oven at 40° C. for 3 hours and placed on the background lawn. In order to generate the background lawn, it was prepared a bacterial culture of 16 hours, with the strain of interest, it was performed a 1/30 dilution of the culture with fresh medium and incubated under stirring at 37° C. until reaching the exponential growth phase (D0600 nm 0.4-0.5). It was taken an aliquot of 100 μL of the culture in exponential phase, and deposited in 4 mL of Mueller-Hinton soft agar at 0.8% (previously melted and stabilized at 50° C.). The mature was deposited on a Petri dish with 20 mL of Mueller-Hinton agar base. […]
(§2) Experiments were performed in triplicate and in three independent events. From the treated plates, it was measured the zone of inhibition generated by each control and fabrics embedded with the proposed compound, which is summarized in Table 7.

[3] = system: Escherichia coli ATCC25922; experiment: as above; settings: commercial disc 30 μg Km; in mm
Method: as §1, §2

[4] = system: Staphylococcus epidermidis ATCC25923; experiment: Disc growth inhibition halo test (Example 2); settings: commercial disc 30 μg Km
[5] = system: Streptococcus pyogenes ATCC2367; experiment: Disc growth inhibition halo test (Example 2); settings: commercial disc 30 μg Km
[6] = system: Enterococcus faecium ISP133/04; experiment: Disc growth inhibition halo test (Example 2); settings: commercial disc 30 μg Km
[7] = system: Staphylococcus aureus ATCC25923; experiment: Disc growth inhibition halo test (Example 2); settings: commercial disc 30 μg Km
[8] = system: Staphylococcus aureus ATCC25923; experiment: Thick cloth growth inhibition test (Example 6); settings: commercial disc 30 μg Km; in mm
Method: (§3) This example determined qualitatively the antibacterial effect of the copper solution proposed, embedded in a matrix of thick fabric which was prepared following the procedure of the present invention. Pieces of cloth of about 2×2 cm were prepared and embedded with the product and then were deposited on a background lawn of 12 different bacteria strains.
(§4) In order to do this, it was prepared a bacterial culture of 16 hours, with the strain of interest, it was performed a 1/30 dilution of the culture with fresh medium and incubated under stirring at 37° C. until reaching the exponential growth phase (D0600 nm 0.4-0.5). It was taken an aliquot of 100 μL of the culture in exponential phase, and deposited in 4 mL of Mueller-Hinton soft agar at 0.8% (previously melted and stabilized at 50° C.). The mixture was deposited on a Petri dish with 20 mL of Mueller-Hinton agar base. Once the agar was gelled, each of the discs with different amounts of the test compound were deposited on the background lawn, and incubated at 37° C. during 48 hours.
(§5) Experiments were performed in triplicate in independently, using as negative control discs with the solvent DMSO alone and cloth without the product of study. As positive control were used commercial discs used with 30 μg of antibiotic Kanamycin (Km).

[9] = system: Streptococcus pyogenes ATCC2367; experiment: Thick cloth growth inhibition test (Example 6); settings: commercial disc 30 μg Km; in mm
Method: as §3, §4, §5

[10] = system: Enterococcus faecium ISP133/04; experiment: Thick cloth growth inhibition test (Example 6); settings: commercial disc 30 μg Km; in mm
Method: as §3, §4, §5

[11] = system: Enterococcus faecalis ATCC29212; experiment: Thick cloth growth inhibition test (Example 6); settings: commercial disc 30 μg Km; in mm
Method: as §3, §4, §5

[12] = system: Citrobacter freundii ISP1949/99; experiment: Thick cloth growth inhibition test (Example 6); settings: commercial disc 30 μg Km
Method: as §3, §4, §5

[13] = system: Streptococcus pneumoniae ATCC14325; experiment: Thick cloth growth inhibition test (Example 6); settings: commercial disc 30 μg Km; in mm
Method: as §3, §4, §5

[14] = system: Pseudomonas aeruginosa PAOI; experiment: Thick cloth growth inhibition test (Example 6); settings: commercial disc 30 μg Km; in mm
Method: as §3, §4, §5

[15] = system: Enterobacter aerogenes ATCC13048; experiment: Thick cloth growth inhibition test (Example 6); settings: commercial disc 30 μg Km; in mm
Method: as §3, §4, §5

[16] = system: Klebsiella pneumoniae ATCC4352; experiment: Thick cloth growth inhibition test (Example 6); settings: commercial disc 30 μg Km; in mm
Method: as §3, §4, §5

[17] = system: Staphylococcus epidermidis ATCC2S923; experiment: Thick cloth growth inhibition test (Example 6); settings: commercial disc 30 μg Km; in mm
Method: as §3, §4, §5

[18] = system: Escherichia coli ATCC25922; experiment: Thick cloth growth inhibition test (Example 6); settings: commercial disc 30 μg Km; in mm
Method: as §3, §4, §5

[19] = system: Acinetobacter baumanii UPP4 56; experiment: Thick cloth growth inhibition test (Example 6); settings: commercial disc 30 μg Km
Method: as §3, §4, §5

[20] = system: Enterobacter aerogenes ATCC13048; experiment: Disc growth inhibition halo test (Example 2); settings: commercial disc 30 μg Km
[21] = system: Enterococcus faecalis ATCC29212; experiment: Disc growth inhibition halo test (Example 2); settings: commercial disc 30 μg Km
[22] = system: Pseudomonas aeruginosa PAOI; experiment: Disc growth inhibition halo test (Example 2); settings: commercial disc 30 μg Km
[23] = system: Citrobacter freundii ISP1949/99; experiment: Disc growth inhibition halo test (Example 2); settings: commercial disc 30 μg Km
[24] = system: Streptococcus pneumoniae ATCC14325; experiment: Disc growth inhibition halo test (Example 2); settings: commercial disc 30 μg Km

`NC[C@H]1O[C@H](O[C@H]2[C@H](O)[C@@H](O[C@H]3O[C@H](CO)[C@@H](O)[C@H](N)[C@H]3O)[C@H](N)C[C@@H]2N)[C@H](O)[C@@H](O)[C@@H]1O` [Km, Kanamycin] was tested, and the Growth inhibition zone [1] was 18 ± 1.8 mm and 15 ± 0.2 mm and 18 ± 0.7 mm and 20.0 ± 0.7 mm, the Growth inhibition zone [2] was 18.0 ± 1.4 and the Growth inhibition zone [3] was 20.6 ± 0.6. For the same compound, the Growth inhibition zone [4] was 16 + 0.5 mm and 14 + 0.7 mm and 18 ± 0.7 mm and 18.5 ± 3.5 mm, the Growth inhibition zone [5] was 5 mm and 5.0 mm and the Growth inhibition zone [6] was 12.5 ± 1.2 mm and 9 ± 0.7 mm and 11.0 mm. The Growth inhibition zone [7] was 21 ± 2 mm and 20 ± 0.8 mm and 15 ± 0.5 mm and 19.0 mm, the Growth inhibition zone [8] was 18.0 ± 0.5 and the Growth inhibition zone [9] was 6.0 ± 1.0. For the same compound, the Growth inhibition zone [10] was 11.0 ± 0.8, the Growth inhibition zone [11] was 14.0 ± 1.0 and the Growth inhibition zone [12] was 17.0 ± 0.3. The Growth inhibition zone [13] was 10.0 ± 0.2, the Growth inhibition zone [14] was 7.0 ± 0.5 and the Growth inhibition zone [15] was 12.0 ± 0.5. It also gave a Growth inhibition zone [16] of 18.0 ± 1.0, a Growth inhibition zone [17] of 24.0 ± 1.0 and a Growth inhibition zone [18] of 19.0 ± 0.5. The Growth inhibition zone [19] was 5 mm, the Growth inhibition zone [20] was 14 + 0.5 mm and 15 ± 0.4 mm and 16 ± 0.4 mm and 19.0 ± 0.7 mm and the Growth inhibition zone [21] was 10 mm and 15 + 0.6 mm and 15 ± 0.6 mm and 10.5 ± 0.2 mm. For the same compound, the Growth inhibition zone [22] was 7 ± 1.0 mm and 9 ± 0.7 mm and 7 + 0.7 mm and 7.0 ± 1.4 mm, the Growth inhibition zone [23] was 19 ± 0.3 mm and 12 ± 0.5 mm and 15 ± 0.5 mm and 19.0 ± 0.2 mm and the Growth inhibition zone [24] was 15 ± 0.8 mm and 12.5 ± 1.2 mm and 11 ± 1 mm and 11.5 ± 0.8 mm.
